Data: patent US20130302282A1, “Inhibitors of Hepatitis C Virus” (priority 2010, published 2013)
Where two headings read alike, the source gives them in different places.

How the values were obtained:
[1] = system: HCV 1a; assay: HCV 1a replicon assay; format: cell-based; settings: Hepatitis C virus; class symbol; cell marked (HCV genotype 1a replicon); read-out: Inhibition of HCV genotype 1a replicon
Procedure: Compounds of the invention can inhibit multiple genotypes of HCV selected but not limited to 1a, 1h, 2a, 3a, and 4a. The EC50s are measured in the corresponding replicon assays that are similar to HCV 1b replicon assay as described above.
The biological activity against HCV 1b, 1a, or 2a is indicated as being *, **, ***, or ****, which corresponds to EC50 ranges of EC50>1000 nM, 100 nM<EC50≦1000 nM, 10 nM<EC50≦100 nM, or EC50≦10 nM, respectively. The biological activity against HCV NS5B C316Y or S365A mutant is indicated as being […], which corresponds to EC50 ranges of EC50>1000 nM, 200 nM<EC50≦1000 nM, […], respectively.

[2] = system: 1b_Huh-Luc/Neo-ET cell line (bicistronic genotype 1b replicon in Huh 7 cells); assay: HCV 1b replicon assay, luciferase readout; format: cell-based, HCV genotype 1b
Procedure: Biological activity of the compounds of the invention was determined using an HCV replicon assay. The 1b_Huh-Luc/Neo-ET cell line persistently expressing a bicistronic genotype 1b replicon in Huh 7 cells was obtained from ReBLikon GMBH. This cell line was used to test compound inhibition using luciferase enzyme activity readout as a measurement of compound inhibition of replicon levels.
On Day 1 (the day after plating), each compound is added in triplicate to the cells. Plates incubated for 72 […] prior to running the luciferase assay. Enzyme activity was measured using a Bright-Glo Kit (cat. number E2620) manufactured by Promega Corporation. The following equation was used to generate a percent control value for each compound.
%Control=(Average Compound Value/Average Control)*100
The EC50 value was determined using GraphPad Prism and the following equation:
Y=Bottom+(Top−Bottom)/(1+10̂((LogIC50−X)*HillSlope))
EC50 values of compounds are repeated several times in the replicon assay.

[3] = Hepatitis C virus, Huh-7, 1b_Huh-Luc/Neo-ET cell line, read-out: EC50, half-maximal inhibition of HCV 1b replication
[4] = Hepatitis C virus, Huh-7, class symbol, HCV genotype 1b replicon, read-out: Inhibition of HCV genotype 1b replicon
[5] = class symbol, HCV genotype 1b replicon, read-out: Inhibition of HCV genotype 1b replicon

Structure (SMILES)	EC50 [1]	EC50 [2, 3]	EC50 [2, 4]	EC50 [2, 5]
CNC(=O)c1c(-c2ccc(F)cc2)oc2cc3c(cc12)C(CF)OCCN3S(C)(=O)=O (stereo not drawn) [Compound B153]	0.01 to 0.1 µM	0.01 to 0.1 µM	–	–
CNC(=O)c1c(-c2ccc(F)cc2)oc2cc3c(cc12)C(C)N(CCCO)CCN3S(C)(=O)=O (stereo not drawn) [Compound B154]	0.01 to 0.1 µM	0.01 to 0.1 µM	–	–
CNC(=O)c1c(-c2ccc(F)cc2)oc2cc3c(cc12)C(C)N(C(C)=O)CCN3S(C)(=O)=O (stereo not drawn) [Compound B110]	0.1 to 1 µM	–	–	–
CNC(=O)c1c(-c2ccc(F)cc2)oc2cc3c(cc12)C(C)N(CC(=O)N(C)C)CCN3S(C)(=O)=O (stereo not drawn) [Compound B150]	0.01 to 0.1 µM	0.01 to 0.1 µM	–	–
CNC(=O)c1c(-c2ccc(F)cc2)oc2cc3c(cc12)C(C)C(C)(C)CCN3S(C)(=O)=O (stereo not drawn) [Compound B115]	0.01 to 0.1 µM	0.01 to 0.1 µM	–	–
CNC(=O)c1c(-c2ccc(F)cc2)oc2cc3c(cc12)CCCCN3S(N)(=O)=O [Compound B102]	0.1 to 1 µM	–	–	–
CNC(=O)c1c(-c2ccc(Oc3ccc(F)cc3)cc2)oc2cc3c(cc12)[C@@H](C)OCCN3S(C)(=O)=O [Compound B117]	0.1 to 1 µM	–	–	–
CNC(=O)c1c(-c2ccc(F)cc2)oc2cc3c(cc12)/C(C)=C\CCCN3S(C)(=O)=O [Compound B81]	0.1 to 1 µM	–	–	–
CNC(=O)c1c(-c2ccc(Oc3ccc(F)cc3)cc2)oc2cc3c(cc12)[C@H]1C[C@H]1CCN3S(C)(=O)=O (single isomer, unassigned) [Compound B143]	0.1 to 1 µM	–	–	–
CNC(=O)c1c(-c2ccccc2)nn2cc3c(cc12)C(C)CCCN3S(C)(=O)=O (stereo not drawn) [Compound B105]	0.1 to 1 µM	–	–	–
CNC(=O)c1c(-c2ccc(F)cc2)oc2cc3c(cc12)CCCCN3C(C)=O [Compound B80]	> 1 µM	–	–	–
[2H]C([2H])([2H])NC(=O)c1c(-c2ccc(F)cc2)oc2cc3c(cc12)C(C)N(C)CCN3S(C)(=O)=O (stereo not drawn) [Compound B152]	0.1 to 1 µM	–	–	–
CNC(=O)c1c(-c2ccc(F)cc2)oc2cc3c(cc12)CCCCN3S(=O)(=O)N(C)C [Compound B103]	0.1 to 1 µM	–	–	–
CNC(=O)c1c(-c2ccc(F)cc2)oc2cc3c(cc12)[C@@H](C)N1CCC[C@H]1CN3S(C)(=O)=O (single isomer, unassigned) [Compound B122]	> 1 µM	–	–	–
CNC(=O)c1c(-c2ccc(F)cc2)oc2cc3c(cc12)[C@H](C)N1CCC[C@@H]1CN3S(C)(=O)=O (single isomer, unassigned) [Compound B131]	–	≤ 0.01 µM	< 0.01 µM	–
CNC(=O)c1c(-c2ccc(F)cc2)oc2cc3c(cc12)[C@H]1C[C@H]1CCN3S(C)(=O)=O (single isomer, unassigned) [Compound B133]	–	–	> 1 µM	–
CNC(=O)c1c(-c2ccc(F)cc2)oc2cc3c(cc12)[C@@H](C)n1nncc1CN3S(C)(=O)=O (single isomer, unassigned) [Compound B170]	–	0.01 to 0.1 µM	0.01 to 0.1 µM	–
CNC(=O)c1c(-c2ccc(Oc3ccc(F)cc3)cc2)oc2cc3c(cc12)[C@@H](C)OC(C)(C)CN3S(C)(=O)=O (single isomer, unassigned) [Compound B177]	–	–	0.1 to 1 µM	–
CNC(=O)c1c(-c2ccc(F)cc2)oc2cc3c(cc12)[C@@H](C)N(C)C(=O)CN3S(C)(=O)=O (single isomer, unassigned) [Compound B180]	–	0.01 to 0.1 µM	0.01 to 0.1 µM	–
CNC(=O)c1c(-c2ccc(Oc3ccc(F)cc3)cc2)oc2cc3c(cc12)C(C)OC(CCS(C)(=O)=O)CN3S(C)(=O)=O (stereo not drawn) [Compound B236]	–	≤ 0.01 µM	< 0.01 µM	–
CS(=O)(=O)N1CCCCCc2cc3c(-c4ncc[nH]4)c(-c4ccc(F)cc4)nn3cc21 [Compound B129]	–	–	0.01 to 0.1 µM	–
CNC(=O)c1c(-c2ccc(Oc3ccc(F)cc3)cc2)oc2cc3c(cc12)C1(CCCN3S(C)(=O)=O)CC1 [Compound B141]	0.1 to 1 µM	–	–	–

Structure (SMILES)	EC50 [1]	EC50 [2, 3]	EC50 [2, 4]	EC50 [2, 5]
CNC(=O)c1c(-c2ccc(Oc3ccc(F)cc3)cc2)oc2cc3c(cc12)[C@@H](C)O[C@@H](CS(C)(=O)=O)CN3S(C)(=O)=O [Compound B206]	–	–	0.1 to 1 µM	–
CNC(=O)c1c(-c2ccc(Oc3ccc(F)cc3)cc2)oc2cc3c(cc12)[C@H](C)O[C@@H](CO)CN3S(C)(=O)=O [Compound B241]	–	0.01 to 0.1 µM	0.01 to 0.1 µM	–
CNC(=O)c1c(-c2ccc(F)cc2)oc2cc3c(cc12)[C@@H](C)NC(=O)CN3S(C)(=O)=O (single isomer, unassigned) [Compound B209]	–	–	0.1 to 1 µM	–
CNC(=O)c1c(-c2ccc(F)cc2)oc2cc3c(cc12)[C@H](C)O[C@H](CCO)CN3S(C)(=O)=O [Compound B230]	–	0.01 to 0.1 µM	0.01 to 0.1 µM	–
CNC(=O)c1c(-c2ccc(F)cc2)oc2cc3c(cc12)C(=O)CCCCN3S(C)(=O)=O [Compound B82]	0.1 to 1 µM	–	–	–
CNC(=O)c1c(-c2ccc(F)cc2)oc2cc3c(cc12)C(C)OC(C(=O)N1CCOCC1)CN3S(C)(=O)=O (stereo not drawn) [Compound B228]	–	0.01 to 0.1 µM	0.01 to 0.1 µM	–
CNC(=O)c1c(-c2ccc(F)cc2)oc2cc3c(cc12)C(C)CCCCN3S(C)(=O)=O (stereo not drawn) [Compound B94]	–	≤ 0.01 µM	< 0.01 µM	–
CC1c2cc3c(-c4ncc[nH]4)c(-c4ccc(Oc5ccc(F)cc5)cc4)oc3cc2N(S(C)(=O)=O)CCN1C (stereo not drawn) [Compound B166]	–	0.01 to 0.1 µM	0.01 to 0.1 µM	–
CN(O)C(=O)c1c(-c2ccc(F)cc2)oc2cc3c(cc12)CCCCN3S(C)(=O)=O [Compound B59]	–	–	0.1 to 1 µM	–
CNC(=O)c1c(-c2ccc(F)cc2)oc2cc3c(cc12)[C@H](C)O[C@H](CS(C)(=O)=O)CN3S(C)(=O)=O [Compound B215]	–	0.01 to 0.1 µM	–	0.01 to 0.1 µM
CNC(=O)c1c(-c2ccc(F)cc2)oc2cc3c(cc12)C1(CCCCN3S(C)(=O)=O)CC1 [Compound B104]	0.1 to 1 µM	–	–	–
CNC(=O)c1c(-c2ccc(F)cc2)nn2cc3c(cc12)CCCCCN3S(C)(=O)=O [Compound B125]	–	–	0.01 to 0.1 µM	–
CNC(=O)c1c(-c2ccc(Oc3ccc(F)cc3)cc2)oc2cc3c(cc12)C(C)OC(CO)CN3S(C)(=O)=O (stereo not drawn) [Compound B191]	–	–	–	< 0.01 µM
CNC(=O)c1c(-c2ccc(F)cc2)oc2cc3c(cc12)C(C)n1nnnc1CN3S(C)(=O)=O (stereo not drawn) [Compound B189]	–	0.01 to 0.1 µM	0.01 to 0.1 µM	–
CNC(=O)c1c(-c2ccc(F)cc2)nc2cc3c(cn12)C(C)CCCN3S(C)(=O)=O (stereo not drawn) [Compound B56]	–	–	0.1 to 1 µM	–
CNC(=O)c1c(-c2ccc(Oc3ccccc3F)cc2)nn2cc3c(cc12)C(C)CCCN3S(C)(=O)=O (stereo not drawn) [Compound B95]	–	–	0.1 to 1 µM	–
CNC(=O)c1c(-c2ccc(F)cc2)oc2cc3c(cc12)C(C)OC(C)CN3S(C)(=O)=O (stereo not drawn) [Compound B190]	–	≤ 0.01 µM	< 0.01 µM	–
CNC(=O)c1c(-c2ccc(F)cc2)oc2cc3c(cc12)C(C)O[C@@H](c1ccc(F)cc1)CN3S(C)(=O)=O (stereo partly drawn) [Compound B210]	–	0.01 to 0.1 µM	0.01 to 0.1 µM	–
CNC(=O)c1c(-c2ccc(Oc3cccc(F)c3)cc2)nn2cc3c(cc12)C(C)CCCN3S(C)(=O)=O (stereo not drawn) [Compound B96]	–	–	0.01 to 0.1 µM	–
CNC(=O)c1c(-c2ccc(Oc3ccc(F)cc3)cc2)oc2cc3c(cc12)C1CC1CCN3S(C)(=O)=O (stereo not drawn) [Compound B140]	0.1 to 1 µM	–	–	–
CNC(=O)c1c(-c2ccc(F)cc2)oc2cc3c(cc12)[C@H](C)O[C@@H](CCO)CN3S(C)(=O)=O [Compound B231]	–	0.01 to 0.1 µM	0.01 to 0.1 µM	–
CNC(=O)c1c(-c2ccc(F)cc2)oc2cc3c(cc12)C(C(F)(F)F)OCCN3S(C)(=O)=O (stereo not drawn) [Compound B148]	–	≤ 0.01 µM	< 0.01 µM	–
